Columns and labels:
Test in all cases: differential drug sensitivity score (dDSS) relative to sarcoma reference cohort mean DSS (DSS units (0-100 scale difference)); higher = more selective sensitivity than reference sarcomas
Conditions in all cases: exposure time: 72 h; concentration range: 10-10000 nM
[1] = system: CDS-ZH001-2 (patient-derived CIC-DUX4 sarcoma tumoroid)
Description: (§1)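 Drug response profiling of patient-derived Ewing sarcoma and CIC::DUX4 sarcoma tumoroid models (or cells tested directly after isolation from the tumor, 'direct'). The DSS is the normalised AUC (0-100); dDSS is the sample DSS minus the mean DSS of a 34-sarcoma reference cohort profiled in the same lab.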

[2] = system: CDS-ZH001 (patient-derived CIC-DUX4 sarcoma tumoroid)
Description: as §1

[3] = system: CDS-ZH002 direct (CIC-DUX4 sarcoma cells right after isolation)
Description: as §1

[4] = system: CDS-ZH002 (patient-derived CIC-DUX4 sarcoma tumoroid)
Description: as §1

[5] = system: CDS-ZH003 (patient-derived CIC-DUX4 sarcoma tumoroid)
Description: as §1

[6] = system: ES-ZH001 (patient-derived Ewing sarcoma tumoroid)
Description: as §1

[7] = system: ES-ZH002 (patient-derived Ewing sarcoma tumoroid)
Description: as §1

[8] = system: ES-ZH004 (patient-derived Ewing sarcoma tumoroid)
Description: as §1

[9] = system: ES-ZH007 (patient-derived Ewing sarcoma tumoroid)
Description: as §1

[10] = system: ES-ZH008 (patient-derived Ewing sarcoma tumoroid)
Description: as §1

[11] = system: ES-ZH009 (patient-derived Ewing sarcoma tumoroid)
Description: as §1

[12] = system: ES-ZH016 direct (Ewing sarcoma cells right after isolation)
Description: as §1

[13] = system: ES-ZH016 (patient-derived Ewing sarcoma tumoroid)
Description: as §1

Structure (SMILES) | differential drug sensitivity score [1] | differential drug sensitivity score [2] | differential drug sensitivity score [3] | differential drug sensitivity score [4] | differential drug sensitivity score [5] | differential drug sensitivity score [6] | differential drug sensitivity score [7] | differential drug sensitivity score [8] | differential drug sensitivity score [9] | differential drug sensitivity score [10] | differential drug sensitivity score [11] | differential drug sensitivity score [12] | differential drug sensitivity score [13]
CC[C@@H]1C(=O)N(C)c2cnc(Nc3ccc(C(=O)NC4CCN(C)CC4)cc3OC)nc2N1C1CCCC1 [BI-2536] | 1.7 | -0.7 | -8 | 2.2 | -10 | 21.6 | 19 | 2.9 | 6.1 | 2.3 | 19.6 | 13.4 | 17.6
CCCC(CCC)C(=O)O [Valproic acid] | -0.9 | -2.5 | -1.9 | -2.5 | -1.3 | 2.8 | 4.4 | 8.2 | 0.9 | 1.7 | 1.7 | 6.5 | -2.5
O=c1cc(-c2cccc3c2Sc2ccccc2S3)oc(N2CCOCC2)c1 | 2.9 | 0 | 3.7 | -0.2 | -1.3 | -1.3 | -1.3 | -1.3 | -1.3 | -1.3 | -0.4 | 13.8 | -1.3
N#CC[C@H](C1CCCC1)n1cc(-c2ncnc3[nH]ccc23)cn1 [Ruxolitinib] | -0.1 | 0.9 | -0.8 | -0.6 | 1.3 | -0.8 | -0.8 | -0.8 | -0.8 | -0.8 | 4.4 | 2.7 | 1.7
COc1cc(C(=O)O)ccc1NC(=O)[C@@H]1N[C@@H](CC(C)(C)C)[C@](C#N)(c2ccc(Cl)cc2F)[C@H]1c1cccc(Cl)c1F [Idasanutlin] | 8.5 | 4 | 10 | 1.9 | 12 | -13.6 | 23 | -13.6 | -13.6 | 19.1 | -13.6 | 15.1 | 6.4
CCNC(=O)c1noc(-c2cc(C(C)C)c(O)cc2O)c1-c1ccc(CN2CCOCC2)cc1 [Luminespib] | 2.1 | 4.1 | -3.8 | -9.4 | 2.7 | 3.5 | 10.5 | 1.2 | 3.7 | 7.8 | 6.6 | 8.1 | 2.2
S=c1[nH]cnc2nc[nH]c12 [Mercaptopurine] | 12 | 3.8 | -1.8 | -1.3 | -5 | 0.9 | 0.3 | -4.2 | -0.4 | -1.6 | 7.4 | 4.9 | 2.9
COc1cc(N2CCC(N3CCN(C)CC3)CC2)ccc1Nc1ncc(Cl)c(Nc2ccccc2P(C)(C)=O)n1 [Brigatinib] | 7.6 | 3.4 | -0.2 | -4.2 | 2 | -0.4 | 9 | -3 | 1.9 | 4.1 | 2.5 | 0.4 | 1.9
CNC(=O)c1cc(Oc2ccc(NC(=O)Nc3ccc(Cl)c(C(F)(F)F)c3)c(F)c2)ccn1 [Regorafenib] | -2 | -2 | -0.6 | -2 | 2.7 | -2 | -1.1 | 0.8 | -2 | -2 | -0.4 | -2 | -2
C[C@@H]1COCCN1c1cc(C2([S@](C)(=N)=O)CC2)nc(-c2cc[nH]c3nccc2-3)n1 [Ceralasertib] | 0.7 | 0 | -2.5 | -0.4 | -4.4 | 5.9 | 12 | 5.7 | 3 | 9.7 | 2.1 | 13.8 | 4.5
Cc1[nH]c2ccccc2c1CCNCc1ccc(/C=C/C(=O)NO)cc1 [Panobinostat] | 4.9 | -2.7 | 2 | -1.1 | -3.6 | 3.6 | 4 | 5.4 | 6.3 | 6.6 | 10.3 | 7.4 | 6.6
Cc1nc(NC(=O)N2CCC[C@H]2C(N)=O)sc1-c1ccnc(C(C)(C)C(F)(F)F)c1 [Alpelisib] | 4.9 | 2.9 | -2 | -3 | 0.2 | -3.7 | 11 | 0.8 | -1.9 | 11 | 2.5 | 0.9 | 1
CCc1c2c(nc3ccc(OC(=O)N4CCC(N5CCCCC5)CC4)cc13)-c1cc3c(c(=O)n1C2)COC(=O)[C@]3(O)CC [Irinotecan] | -0.6 | 1 | -5.3 | -4 | -9.5 | 19.6 | 23.1 | 23.1 | 14.3 | 31.1 | 9.1 | 15.8 | 17.9
Cn1cnc2c(F)c(Nc3ccc(Br)cc3Cl)c(C(=O)NOCCO)cc21 [Selumetinib] | -2 | -2 | -2 | -2 | 2.5 | -2 | -2 | -1.9 | -2 | 5.1 | -2 | -2 | -2
CCc1cc2c(cc1N1CCC(N3CCOCC3)CC1)C(C)(C)c1[nH]c3cc(C#N)ccc3c1C2=O [Alectinib] | -1.3 | -1.2 | -0.8 | -1.3 | 2.4 | -0.5 | 4.6 | -1.3 | -1.3 | -0.7 | -1.3 | -1.3 | -1.3
O=C(c1cc(Cc2n[nH]c(=O)c3ccccc23)ccc1F)N1CCN(C(=O)C2CC2)CC1 [Olaparib] | -2 | -3.8 | -5.3 | -5.3 | -5.3 | 8.4 | 15 | 11.2 | 4 | 10.3 | -0.2 | 11.3 | 7.1
CC(=O)Nc1cccc(-n2c(=O)n(C3CC3)c(=O)c3c(Nc4ccc(I)cc4F)n(C)c(=O)c(C)c32)c1 [Trametinib] | -3.5 | -3.5 | -3.5 | -3.5 | 3.2 | 3.2 | 9.5 | 1.5 | -3.5 | 4.1 | -3.5 | -3.5 | -3.5
N[C@@H](Cc1ccc(N(CCCl)CCCl)cc1)C(=O)O [Melphalan] | -1.7 | -1.7 | -1.7 | -1.7 | -1.7 | -1 | 7 | 4.3 | -1.7 | 2.7 | -1.3 | 4 | 3.5
CN(C)C/C=C/C(=O)Nc1ccc(C(=O)Nc2cccc(Nc3ncc(Cl)c(-c4c[nH]c5ccccc45)n3)c2)cc1 [THZ1] | 6.7 | 0 | 9.2 | 0.9 | -8.9 | 4.2 | 4.3 | 11.4 | 0.1 | 8.6 | 7.4 | 9 | 10.2
C[C@H](NC(=O)CCC(F)(F)F)C(=O)N[C@@H]1C(=O)N(CCO)c2ncccc2-c2ccccc21 [Crenigacestat] | 0.3 | -2.3 | -0.6 | -0.2 | -2.3 | 5.8 | 13.6 | 5.8 | -2.3 | 6.4 | -2.3 | 1 | -2.3
O=c1[nH]c2ccccc2n1C1CCN(CCCC(c2ccc(F)cc2)c2ccc(F)cc2)CC1 [Pimozide] | 6.3 | 3.4 | -2.1 | 0.9 | 5.1 | -4.3 | -2.4 | -3.1 | -2.3 | -3.6 | 7.1 | 7.3 | 5.5
NC(=O)Nc1cc(-c2cccc(F)c2)sc1C(=O)N[C@H]1CCCNC1 [AZD7762] | 0 | 6.3 | -1 | -0.5 | -3.8 | 7.4 | 7.1 | -2.9 | 8.8 | 8.1 | 8.8 | 10.6 | 4.7
CN[C@@H](C)C(=O)N[C@H](C(=O)N1CCC[C@H]1c1nc(C(=O)c2ccc(F)cc2)cs1)C1CCCCC1 [LCL161] | 4.5 | 11.6 | 1 | -1.3 | 3.3 | -1.3 | -1.3 | -0.7 | -0.2 | -0.8 | -1.3 | 0.8 | -1.3
Cc1nc(Nc2ncc(C(=O)Nc3c(C)cccc3Cl)s2)cc(N2CCN(CCO)CC2)n1 [Dasatinib] | -4.6 | -11.9 | 8.9 | -3.2 | -9.6 | -4.5 | 2.2 | -3.6 | -6.8 | -7.5 | -7 | 9.3 | -10.8
CC(=O)[C@]1(O)Cc2c(O)c3c(c(O)c2[C@@H](O[C@H]2C[C@H](N)[C@H](O)[C@H](C)O2)C1)C(=O)c1ccccc1C3=O [Idarubicin] | 7 | -0.3 | 1.8 | 0.5 | 0.5 | 11.8 | 19.4 | -2.2 | -9.5 | 6.4 | 13.4 | 7.3 | 11.8
CO[C@@H]1[C@H](N(C)C(=O)c2ccccc2)C[C@H]2O[C@]1(C)n1c3ccccc3c3c4c(c5c6ccccc6n2c5c31)C(=O)NC4 [Midostaurin] | 2.2 | -1.3 | 0.6 | -4.2 | -0.3 | 5.9 | 3.4 | -11 | -1.6 | 5.8 | 7.9 | 7.8 | 3.1
O=[P@]1(N(CCCl)CCCl)N[C@H](OO)CCO1 [Hydroperoxycyclophosphamide] | -2.3 | -0.7 | -3.6 | -3.6 | -4.1 | 1.7 | 7.7 | 6.4 | 0.2 | 6.5 | -1 | 4.6 | 2.2
CC[C@H](Nc1ncnc2[nH]cnc12)c1nc2cccc(F)c2c(=O)n1-c1ccccc1 [Idelalisib] | -1.3 | -1.4 | -1.5 | -1.4 | 2.9 | -1.5 | 1.3 | -1.5 | -1.5 | -1.5 | -1.5 | -1.5 | 1.5
CCc1cnn2c(NCc3ccc[n+]([O-])c3)cc(N3CCCC[C@H]3CCO)nc12 [Dinaciclib] | 11.5 | 14 | 12.8 | 12 | 14 | 9.8 | 11.7 | 9.8 | 9.6 | 6.6 | 13.8 | 11.6 | 12.2
C[C@]12C=CC(=O)C=C1CC[C@@H]1[C@@H]2C(=O)C[C@@]2(C)[C@H]1CC[C@]2(O)C(=O)CO [Prednisone] | -0.5 | -0.5 | -0.5 | -0.5 | -0.5 | -0.5 | -0.5 | -0.5 | -0.5 | -0.5 | -0.5 | -0.5 | -0.5

From the supplement of paper PMC12370961
